According to US12440568B2 (priority 2010, dated 2025):

How the values were obtained:
[1] = tested on: TCC cell cultures and human bladder tumor tissue cultures; conditions: cited from earlier work
[2] = tested on: Cell lines of human bladder cancer; assay: MTT viability assay, MMC in DTC-2 versus MMC in saline; format: cell-based; conditions: cell lines exposed to MMC
Procedure: An in-vitro study was performed to evaluate the efficacy of DTCx materials as cytotoxic agents in the urinary bladder. […] Viability was assessed by MTT assay which tests mitochondrial function.
Cell lines of human bladder cancer were grown in RPMI 1640 medium, supplemented with FBS, 100 U/ml penicillin and […] streptomycin. […] After 2 hours of incubation, medium was replaced with fresh medium for all plates.
The plates were tested by taking out the medium and adding fresh medium containing MTT reagent. All other plates were returned to the incubator for incubation of 24, 72, 120 and 144 h. MTT assays were used to assess toxicity at all time points. The proportion of living cells was calculated by comparison to the control vehicle.
A microplate reader (EL 312e: Bio-Tek Instruments, Winooski VT) was used to evaluate the presence of […] as a color development measured by absorbance spectroscopy at 450 nm. Background optical density (OD) was subtracted from the OD readings of all samples. Cell viability was calculated by dividing the mean OD absorbance values of the treated wells by the mean OD absorbance of the control wells. All samples were tested in triplicate.
Reference is now made to FIGS. 3A-3D, which show graphs of cell viability as a function of time for various experiments.

[3] = Company studies of solubility and sustained release

| Compound | Concentration needed for similar cell kill effect when exposure reduced from 24 hours to two hours [1] | Higher cell kill with 10× longer exposure time or 10× higher concentration [2] | Solubility and release behaviour in the invented platform [3] |
| --- | --- | --- | --- |
| CO[C@@]12[C@H](COC(N)=O)C3=C(C(=O)C(C)=C(N)C3=O)N1C[C@@H]1N[C@@H]12 [MMC, Mitomycin C] | ten times higher concentration | up to 30 × | – |
| Abamectin | – | – | solubility and first order sustained release |
| Nc1ccn([C@@H]2O[C@H](CO)[C@@H](O)C2(F)F)c(=O)n1 [Gemcitabin] | – | – | solubility and first order sustained release |
| O=C(O)Cc1ccccc1Nc1c(Cl)cccc1Cl [voltaren] | – | – | solubility and first order sustained release |
| COc1cccc2c1C(=O)c1c(O)c3c(c(O)c1C2=O)C[C@@](O)(C(=O)CO)C[C@@H]3O[C@H]1C[C@H](N)[C@H](O)[C@H](C)O1 [Doxorubicin] | – | – | solubility and first order sustained release |
